From US9688672B2, “3-pyrimidin-4-yl-oxazolidin-2-ones as inhibitors of mutant IDH” (NOVARTIS AG, priority 2013, dated 2017)

Experiments:
[1] = Metabolic stability in liver microsomes, Method II; assay type: in vitro ADME
Experimental: The in vitro metabolic stability assay was performed in a 96-deep-well plate with incubation at 37° C. 10 mM DMSO stock solution of the test compound was diluted 1:20 in acetonitrile, followed by an additional 1:10 dilution in 100 mM potassium phosphate buffer (KPi) to yield a final reaction concentration of 1 μM. […] 290 μL of cofactor solution (1.7 mM NADPH, 1.7 mM UDPGA, 3.4 mM MgCl in 100 mM KPi) was added to 200 μL of microsomal protein for a final volume of 490 μL. The reaction was initiated by adding 10 μL of the 50 μM test solution to 490 μL of microsomal protein for a final volume 500 μL enzyme-compound mixture.
At 0, 5, 15 and 30 minute time points in the reaction, reaction aliquots (75 μL) were removed and the reactions were terminated by the addition of 50:50 acetonitrile/methanol solution (75 μL) containing a mass spectrometry internal standard (0.5 μM glyburide). The samples were centrifuged at 4000 RPM for 10 minutes. […] The supernatants solution were analyzed by UPLC/MS/MS for quantitation of parent remaining compound under multiple reactions monitoring mode (MRM) in positive mode. […]

[2] = Metabolic stability in liver microsomes, Method II; assay type: in vitro ADME; remark: listed apart in the source
Experimental: Determination of Metabolic Stability in Liver Microsomes—Method II
The in vitro metabolic stability assay was performed in a 96-deep-well plate with incubation at 37° C. 10 mM DMSO stock solution of the test compound was diluted 1:20 in acetonitrile, followed by an additional 1:10 dilution in 100 mM potassium phosphate buffer (KPi) to yield a final reaction concentration of 1 μM. Immediately prior to the start of the experiment, respective animal or human liver microsomes (male Sprague-dawley rat, male CD-1 mouse, or pooled human liver microsomes) were diluted in 100 mM KPi to 1.25 mg/mL liver microsomal protein. […]
At 0, 5, 15 and 30 minute time points in the reaction, reaction aliquots (75 μL) were removed and the reactions were terminated by the addition of 50:50 acetonitrile/methanol solution (75 μL) containing a mass spectrometry internal standard (0.5 μM glyburide). […] The supernatants solution were analyzed by UPLC/MS/MS for quantitation of parent remaining compound under multiple reactions monitoring mode (MRM) in positive mode. […]
The injection volume was 5 μL. Compounds were detected using Analyst 1.5.1 software which collects intensity data for all fragments related to the molecular weight of the test compound. […]
The intrinsic clearance value, CLint (expressed as μL/min/mg microsomal protein) calculation is shown below: […]

- Mouse microsomal stability CLint [1]: 167.04 µL/min/mg
- Human microsomal stability CLint [2]: 30.44 µL/min/mg
Structure (SMILES): C[C@H](Nc1ncc(F)c(N2C(=O)OC[C@@H]2[C@H](C)F)n1)c1cn(-c2ccc(Cl)cc2F)cn1 [Example 477, (R)-3-(2-(((S)-1-(1-(4-chloro-2-fluorophenyl)-1H-imidazol-4-yl)ethyl)amino)-5-fluoropyrimidin-4-yl)-4-((S)-1-fluoroethyl)oxazolidin-2-one]
